The subject of one experiment is NASH. Description: L-DOPA plus pantethine with or without curcumin in high fat high fructose diet mice, Study 2 (Example 4). It is filed as in vivo. The conditions noted are these: vehicle value assigned 1.0 (maximum score); 3 weeks treatment. From the text: After 3 weeks on the test diet, animals were sacrificed for analyses of body weight, body fat, blood glucose, and liver physiology.

A further experiment deals with NASH Mice. In words: Treatment of NASH mice (high fat high fructose diet) with bromocriptine citrate plus pantethine with or without curcumin, Study 1. It is filed as in vivo. The note with it: vehicle value assigned 1.0 (maximum score); 6 weeks treatment. As to the method:
The curcumin-phosphatidylcholine mixture is stirred until clear while being heated to between 50° C. to 60C. Optionally, add up to 10 ml of water and stir until solution is homogeneous)) (100 mg/kg). […] After 6 weeks on the test diet and treatment, animals were sacrificed for analyses of body weight, body fat, blood glucose, and liver physiology.

On to `N[C@@H](Cc1ccc(O)c(O)c1)C(=O)O` [L-DOPA, 3,4-dihydroxyphenylalanine], for which the “NASH propensity score (liver weight x body weight x body fat x blood glucose level)” value with NASH is reported as 0.61.

In the case of `CC(C)C[C@H]1C(=O)N2CCC[C@H]2[C@]2(O)O[C@](NC(=O)[C@@H]3C=C4c5cccc6[nH]c(Br)c(c56)C[C@H]4N(C)C3)(C(C)C)C(=O)N12` [bromocriptine, 2-bromo-α-ergocriptine], in the experiment with NASH Mice, the “NASH propensity scale score (liver weight x body weight x body fat x liver triglyceride content x blood glucose level)” value was determined as 0.46.

The values are drawn from US20250375406A1, “TREATMENT OF NON-ALCOHOLIC STEATOHEPATITIS AND NON-ALCOHOLIC FATTY LIVER DISEASE” (VEROSCIENCE LLC, priority 2022, published 2025).
